Reference: patent US9089578B2, “Method of treating neuroendocrine tumors” (Niiki Pharma Acquisition Corp. 2, priority 2010, dated 2015)

Tests used:
[1] = system: Stage IV Carcinoid tumor of the small bowel; test: Prior chemo regimens of the carcinoid patient (history); assay type: in vivo, human; conditions: December 2009 to March 2010
From the text: (§1) In a human clinical trial conducted in the US, a person with Stage IV Carcinoid tumor of the small bowel (a neuroectodermal tumor or NET) was selected to undergo treatment of sodium trans-[tetrachlorobis(1H-indazole)ruthenate(III)]. They previously had 2 surgeries: an exploratory lap (diagnosis of neuroendocrine tumor) in June 2008, and a partial surgical resection of mass in October 2008. The second surgery was followed by chemoembolization of residual tumor masses for palliative treatment in October 2008 and in November 2008. Systemic chemotherapy with capecitibine was administered between July and August 2009. In August 2009, therapy was changed to octreotide (Sandostatin LAR), but this was discontinued in November 2009.

[2] = system: human thyroid carcinoma cell line MB1; test: ATCC MTT Cell Proliferation Assay, MB1; assay type: cell-based; conditions: MB1 cells, 72 hours post-treatment, read-out: IC50 (concentration that inhibits cell growth by 50%)
Description: (§2) To test the activities of sodium trans-[tetrachlorobis(1H-indazole)ruthenate(III)], ATCC's MTT Cell Proliferation Assay® was performed using human thyroid carcinoma cell line MB1 and Merkel cell carcinoma cell line MKL-1, both being neuroendocrine tumor (NET) cell lines. Stock cultures were allowed to grow to 70-80% confluence for this study. The anti-proliferative activity of sodium trans-[tetrachlorobis(1H-indazole)ruthenate(III)], against the indicated cell line was evaluated in vitro using the ATCC's MTT Cell Proliferation Assay (Catalog No. 30-1010K). […] The plates were left overnight at room temperature in the dark and was read on a plate reader using SoftMax® Pro (version 5.2, Molecular Devices).
(§3) The absorbance data was analyzed as follows: Absorbance values were converted to Percent of Control and plotted against test agent concentrations for IC50 calculations using SoftMax® Pro (version 5.2, Molecular Devices). […] Percent of Control values were calculated by dividing the absorbance values for each test well by the No Drug Control average (column 11 values; cells+vehicle control) and multiplying by 100. Plots of Compound Concentration versus Percent of Control were analyzed using the 4-parameter equation to obtain IC50 values and other parameters that describe the sigmoidal dose response curve. […]

[3] = system: Merkel cell carcinoma cell line MKL-1; test: ATCC MTT Cell Proliferation Assay, MKL-1; assay type: cell-based, human; conditions: MKL-1 cells, 72 hours post-treatment, read-out: IC50 (concentration that inhibits cell growth by 50%)
Description: as §2, §3

[4] = system: serum gastrin; test: Serum gastrin level by chemiluminescence method in gastrinoma patient; assay type: in vivo, human; conditions: reduced from 8291
From the text: (§4) In the same human clinical trial described above, a person with Stage IV gastrinoma of the stomach, (a neuroectodermal tumor or NET) diagnosed in December 2006 was enrolled. They had multiple attempts to achieve disease control with hepatic artery embolization in […], in January 2007, and in September 2007. Localized radiotherapy with Yttrium-90 instillation to the right lobe of the liver in March 2009 and the left lobe in May 2009 was attempted. Yet the tumor was not controlled.
Serum gastrin levels were measured using chemiluminescence method during the treatment period.

[5] = system: Stage IV gastrinoma of the stomach; test: Human clinical trial, gastrinoma patient, tumor response; assay type: in vivo; conditions: 420 mg/m^2 i.v. days 1, 8, 15 of 28-day cycle, 6 cycles
From the text: as §4

[6] = system: Stage IV Carcinoid tumor of the small bowel; test: Human clinical trial, carcinoid patient, tumor lesions by CT scan; assay type: in vivo; conditions: for Size of tumor lesion by CT scan, Left periaortic LN: baseline 2.5; for Size of tumor lesion by CT scan, Portacaval LN: baseline 3.0; for Size of tumor lesion by CT scan, Stomach/mesenteric LN: baseline 3.3; for Size of tumor lesion by CT scan, Esophageal LN: baseline 3.8
From the text: as §1
As the tumors were progressing, the patient started therapy on May 7, 2010 with intravenous injection of sodium trans-[tetrachlorobis(1H-indazole)ruthenate(III)] at 320 mg/m^2 based on body surface area (for a total dose of 630 mg per administration) once per week, on days 1, 8, and 15 of each 28-day cycle. At that time the patient had four metastatic sites originating from the primary tumor small intestine carcinoid. The four metastatic sites were in portacaval lymph node, left periaortic lymph node, stomach/mesenteric lymph node, and esophageal lymph node. CT scan of the tumors was done at the start of the treatment (baseline), and thereafter every two months.

[7] = End of 2nd Cycle (Jun. 24, 2010), 320 mg/m^2 i.v.
[8] = End of 4th Cycle (Aug. 19, 2010), 320 mg/m^2 i.v.
[9] = carcinoid patient, 320 mg/m^2 i.v. once per week

## C[C@@H](Oc1cc(-c2cnn(C3CCNCC3)c2)cnc1N)c1c(Cl)ccc(F)c1Cl [crizotinib]
[1]
  outcome of prior therapy: disease progression

## [Cl][Ru-]([Cl])([Cl])[Cl].[Na+].c1ccc2[nH]ncc2c1.c1ccc2[nH]ncc2c1 [sodium trans-[tetrachlorobis(1H-indazole)ruthenate(III)]]
[2]
  IC50: 73.7 µM
[3]
  IC50: 40.4 µM
[4]
  serum gastrin level reduced during the course of therapy: 6120
[5]
  best response: stable disease
[6]; [7]
  Size of tumor lesion by CT scan, Left periaortic LN: 2.5
  Size of tumor lesion by CT scan, Stomach/mesenteric LN: 3.1
  Size of tumor lesion by CT scan, Esophageal LN: 3.0
[6]; End of 2nd Cycle (Jun. 24, 2010), 320 mg/m^2 i.v. days 1, 8, 15 of 28-day cycle
  Size of tumor lesion by CT scan, Portacaval LN: 2.9
[6]; [8]
  Size of tumor lesion by CT scan, Left periaortic LN: 2.5
  Size of tumor lesion by CT scan, Portacaval LN: 2.9
  Size of tumor lesion by CT scan, Stomach/mesenteric LN: 3.1
  Size of tumor lesion by CT scan, Esophageal LN: 2.0
[6]; after 14 cycles, as of July 2011
  disease status on treatment: remains under control
[6]; [9]
  effect on the remaining three lesions: stopped tumor growth
  tumor regression in one lesion: ~50%
[6]; carcinoid patient, 320 mg/m^2 i.v., 14 cycles
  serious adverse events: No serious adverse events have been observed
